Reference: article PMC4741878, “Specific inhibition by synthetic analogs of pyruvate reveals that the pyruvate dehydrogenase reaction is essential for metabolism and viability of glioblastoma cells” (Oncotarget, 2015)

Columns and labels:
[1] = biological target: T1, pyruvate dehydrogenase (PDH; E1 component of the pyruvate dehydrogenase complex, PDHC) (Rattus norvegicus, UniProt P26284+P49432); assay: overall PDHC reaction by NADH production: Ki in permeabilized mitochondria; IC50 […] with isolated rat heart PDHC ([…] min preincubation); format: biochemical
T1 construct: gene Pdha1; native PDHC partially purified from rat heart or liver; PDHC in alamethicin-permeabilized rat skeletal muscle mitochondria; with PDHB (E1 beta subunit), within the PDHC with DLAT, DLD and PDHX
T1 sequence (P26284 30-390): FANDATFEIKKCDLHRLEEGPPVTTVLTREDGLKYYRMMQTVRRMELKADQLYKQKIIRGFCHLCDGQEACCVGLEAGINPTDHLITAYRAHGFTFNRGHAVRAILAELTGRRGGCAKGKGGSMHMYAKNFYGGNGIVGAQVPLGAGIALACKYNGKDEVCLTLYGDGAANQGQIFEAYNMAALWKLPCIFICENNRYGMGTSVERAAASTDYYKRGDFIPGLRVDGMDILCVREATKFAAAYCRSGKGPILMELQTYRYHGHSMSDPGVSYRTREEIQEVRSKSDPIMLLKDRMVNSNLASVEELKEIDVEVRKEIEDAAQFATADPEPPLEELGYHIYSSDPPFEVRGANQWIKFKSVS
T1 sequence (P49432 31-359): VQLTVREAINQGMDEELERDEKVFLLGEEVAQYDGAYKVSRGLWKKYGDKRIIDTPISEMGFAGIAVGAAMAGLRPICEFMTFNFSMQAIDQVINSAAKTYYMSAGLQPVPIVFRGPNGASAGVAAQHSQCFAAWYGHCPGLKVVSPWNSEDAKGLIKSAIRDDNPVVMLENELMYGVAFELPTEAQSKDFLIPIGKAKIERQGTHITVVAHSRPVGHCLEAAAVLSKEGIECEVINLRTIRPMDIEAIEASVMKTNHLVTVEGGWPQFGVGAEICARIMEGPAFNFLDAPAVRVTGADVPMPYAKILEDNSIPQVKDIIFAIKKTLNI
T1 sequence (P08461 78-632 partner): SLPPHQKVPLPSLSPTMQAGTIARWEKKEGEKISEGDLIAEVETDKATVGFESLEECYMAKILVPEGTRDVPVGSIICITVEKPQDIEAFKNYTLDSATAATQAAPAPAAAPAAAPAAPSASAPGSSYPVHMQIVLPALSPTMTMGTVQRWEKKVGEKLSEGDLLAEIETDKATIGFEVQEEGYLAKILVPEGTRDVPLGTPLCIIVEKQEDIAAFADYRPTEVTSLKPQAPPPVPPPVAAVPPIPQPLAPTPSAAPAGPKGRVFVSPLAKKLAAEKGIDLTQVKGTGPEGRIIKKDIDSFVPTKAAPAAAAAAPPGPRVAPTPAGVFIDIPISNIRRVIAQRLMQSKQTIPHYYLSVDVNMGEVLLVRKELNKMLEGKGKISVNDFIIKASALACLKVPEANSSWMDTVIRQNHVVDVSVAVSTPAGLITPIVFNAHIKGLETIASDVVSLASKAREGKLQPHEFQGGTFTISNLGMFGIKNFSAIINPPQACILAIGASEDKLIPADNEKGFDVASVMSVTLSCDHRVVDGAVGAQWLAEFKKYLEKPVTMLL
T1 sequence (Q6P6R2 36-509 partner): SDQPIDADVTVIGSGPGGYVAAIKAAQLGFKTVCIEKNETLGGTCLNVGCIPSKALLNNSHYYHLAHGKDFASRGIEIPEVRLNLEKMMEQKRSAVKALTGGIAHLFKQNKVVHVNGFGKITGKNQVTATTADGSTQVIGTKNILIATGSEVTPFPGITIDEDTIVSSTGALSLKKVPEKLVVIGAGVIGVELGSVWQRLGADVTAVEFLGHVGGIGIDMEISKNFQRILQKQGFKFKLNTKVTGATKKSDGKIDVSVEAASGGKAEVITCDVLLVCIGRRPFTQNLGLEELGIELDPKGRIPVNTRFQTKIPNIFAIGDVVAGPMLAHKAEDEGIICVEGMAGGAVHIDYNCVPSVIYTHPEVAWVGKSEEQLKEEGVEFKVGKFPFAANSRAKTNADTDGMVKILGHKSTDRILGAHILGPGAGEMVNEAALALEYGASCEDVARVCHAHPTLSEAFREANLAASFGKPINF

[2] = biological target: T1, pyruvate dehydrogenase (PDH; E1 component of the pyruvate dehydrogenase complex, PDHC); assay: overall PDHC reaction by NADH production: Ki in permeabilized mitochondria; IC50 […] with isolated rat heart PDHC at […] pyruvate; format: biochemical

| SMILES | Ki [1] [µM] | Ki [2] [µM] |
| --- | --- | --- |
| CC(=O)[PH](=O)O [AcPH, acetyl phosphinate] | 0.1 | – |
| COP(=O)(O)C(C)=O [AcPMe, methyl ester of acetyl phosphonate] | – | 40 |
